Measured values taken from the METLIN SMRT retention time set (Domingo-Almenara et al. 2019).

Assay: gradient 5% acetonitrile 3 min, to 50% in 2 min, to 85% in 15 min, held 3 min, 100 µL/min
Conditions: column: Zorbax Extend-C18 2.1 x 50 mm; eluents: water / acetonitrile, 0.1% formic acid
Outline: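 The mobile phases were water and acetonitrile, each with 0.1% formic acid, pumped at 100 μL/min through a Zorbax Extend-C18 column (2.1 × 50 mm, 1.8 μm). Pure standards were injected as mixtures of ~100 molecules and detected by a quadrupole time-of-flight mass spectrometer in positive and negative ionization mode. Retention time came from computationally picked adduct peaks, each inspected by hand.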

`Cc1ccc(NC(=O)Cn2cnc3nc(N4CCC(C(=O)NC5CC5)CC4)sc3c2=O)cc1` showed an RP-LC retention time of 674 s.
Work on `Cc1ccc(-c2nc3ccccn3c2NC(=O)Nc2cc(F)ccc2F)cc1` yielded an RP-LC retention time of 707 s.
Work on `O=C(Nc1ccccc1C(F)(F)F)c1ccc(N2CCCC2)nn1` yielded an RP-LC retention time of 868 s.
Compound `CCOc1ccc(NC(=O)C2CCCN(c3nnc4cccc(C)n34)C2)cc1` (stereo not given) has an RP-LC retention time of 724 s.
With `COc1ccccc1NC(=O)c1cc(C(C)C)n2nccc2n1` the RP-LC retention time was 1180 s.
Compound `CCn1ncc(NC(=O)CCc2ccccc2)c(N2CCOCC2)c1=O` has an RP-LC retention time of 800 s.
In the case of `CC(C)c1nc2c(N)cccn2n1`, the RP-LC retention time was 613 s.
Work on `O=C(Cn1ccn2nc(-c3ccccc3)c(CO)c2c1=O)Nc1ccccc1Cl` yielded an RP-LC retention time of 808 s.
With `Cc1ccc(Nc2nc(-c3cccnc3)nc3ccccc23)cc1` the RP-LC retention time was 742 s.
Compound `NS(=O)(=O)c1ccc(CCNC(=O)c2n[nH]c3ccccc23)cc1` has an RP-LC retention time of 612 s.
Work on `Cc1ccc(C)c(N2CCN(c3ccnc(SCC(=O)Nc4cccc(Cl)c4F)n3)CC2)c1` yielded an RP-LC retention time of 1230 s.
For `CC1CCCN(c2ccn3c(=O)n(CC(=O)Nc4ccc(F)c(Cl)c4)nc3n2)C1` (stereo not given), the RP-LC retention time was 834 s.
`O=S(=O)(c1ccccc1)N1CCC(c2noc(-c3ccc(Cl)cc3)n2)CC1` gave an RP-LC retention time of 1170 s.
In the case of `O=C(Nc1ccccc1F)N1CCN(Cc2nc3ccc(Cl)cc3o2)CC1`, the RP-LC retention time was 745 s.
`CCCNc1nc(-c2cccc(Cl)c2)cs1` gave an RP-LC retention time of 1020 s.
In the case of `Cc1cccc(NC(=O)CN2C(=O)C3CCCCN3c3ccc(S(=O)(=O)N4CCCCC4)cc32)c1` (stereo not given), the RP-LC retention time was 1080 s.
Work on `O=C(Nc1cccc(N2CCCCC2=O)c1)c1ccc(Br)o1` yielded an RP-LC retention time of 680 s.
For `Cc1ccnc(N2CCC(C(=O)N3CCC(C(N)=O)(N4CCCCC4)CC3)CC2)n1`, the RP-LC retention time was 547 s.
In the case of `Cc1cccc(C)c1NC(=O)Cn1c(=O)n(Cc2ccc(F)cc2)c(=O)c2nccnc21`, the RP-LC retention time was 781 s.
In the case of `CCN1CCN(c2cc(C)c3cc(NC(=S)NCc4ccc(F)cc4Cl)ccc3n2)CC1`, the RP-LC retention time was 657 s.
`COc1ccc(C(=O)N2CCC(n3c(-c4ccoc4)nc4cccnc43)C2)cc1F` (stereo not given) showed an RP-LC retention time of 714 s.
With `CCOc1ccc(NC(=O)N2CCN(CCn3c(C(F)(F)F)nc4cccnc43)CC2)cc1` the RP-LC retention time was 649 s.
With `CCOc1ccc(C(=O)N2C[C@@H]3C[C@H]2C[C@@H]3NC(=O)c2cccs2)cc1` the RP-LC retention time was 758 s.
With `COc1ccc(CN2CCC3(CCC3O)CC2)cc1OC` (stereo not given) the RP-LC retention time was 562 s.
For `Fc1ccc(-c2noc(CCc3nnc4ccc(N5CCN(C6CCCCC6)CC5)nn34)n2)cc1`, the RP-LC retention time was 653 s.
`O=C(CCCc1nnc2c(=O)n(-c3ccc(Cl)cc3)ccn12)NCCc1c[nH]c2ccccc12` showed an RP-LC retention time of 744 s.
`O=C(NC1CCCC1)C1CCCN(S(=O)(=O)c2c[nH]c(C(=O)N3CCCC3)c2)C1` (stereo not given) gave an RP-LC retention time of 698 s.
`O=C(c1ccsc1)N1CCN(c2ccccn2)CC1` gave an RP-LC retention time of 521 s.
With `CCN1C(=O)c2cccnc2Sc2cc(NC(=O)Cc3ccccc3Cl)ccc21` the RP-LC retention time was 856 s.
For `Cc1cccc(C)c1NC(=O)Nc1ccc(S(N)(=O)=O)cc1`, the RP-LC retention time was 751 s.
For `CCc1noc(-c2nc(-c3ccccc3F)no2)n1`, the RP-LC retention time was 1010 s.
Compound `Cc1cc(C(=O)N2CCC[C@H]2c2nc(-c3ccccc3)n[nH]2)nn1C` has an RP-LC retention time of 654 s.
Compound `CCOc1ccc(-n2nnc(C(=O)O)c2COC)cc1` has an RP-LC retention time of 734 s.
In the case of `CCc1ccc(C2=C(C)C(N3CCCN(C(=O)c4ccccc4)CC3)=NS2(=O)=O)cc1`, the RP-LC retention time was 896 s.
Compound `CC(C)c1cc(C(=O)Nc2ccc(Cl)cc2)nc2ccnn12` has an RP-LC retention time of 1060 s.
For `CC(C)CCNC(=O)C1CCN(Cc2cc3ccccc3n2Cc2ccccc2Cl)CC1`, the RP-LC retention time was 829 s.
With `O=C(Cn1nc(N2CCOCC2)c2ccccc2c1=O)Nc1ccc(Br)cc1` the RP-LC retention time was 864 s.
`O=C(CN1C(=O)COc2ccc(C(=O)N3CCCC3)cc21)N1CCc2ccccc2C1` showed an RP-LC retention time of 721 s.
For `Cc1nc(C)c(C(=O)N2CCCC2c2nc(-c3ccc(F)cc3F)no2)s1` (stereo not given), the RP-LC retention time was 837 s.
Work on `CCOC(=O)N1CCN(c2nc(F)c(F)c(S(=O)(=O)CCN3C(=O)CCC3=O)c2F)CC1` yielded an RP-LC retention time of 836 s.
For `O=c1n(Cc2cccc(Cl)c2)nc2c(S(=O)(=O)N3CCc4ccccc4C3)cccn12`, the RP-LC retention time was 1010 s.
`COc1ccccc1CNC(=O)C1CCCN1S(=O)(=O)c1cc2c(cc1C)NC(=O)C(C)O2` (stereo not given) showed an RP-LC retention time of 757 s.
Compound `COc1ccc(-c2nc(C)cc(C)c2CNS(=O)(=O)c2cccs2)cc1` has an RP-LC retention time of 642 s.
Compound `C[C@@H](Oc1ccc(S(C)(=O)=O)cc1C(=O)N1CCN(c2ncc(C(F)(F)F)cc2F)CC1)C(F)(F)F` has an RP-LC retention time of 1090 s.
`COc1cccc(CN2C[C@@H](CO)[C@H](c3nc(C4CC4)no3)C2)n1` gave an RP-LC retention time of 618 s.
Work on `O=C(Cn1ncc2c3ccccc3n(Cc3ccccc3)c2c1=O)N1CCN(c2ccccn2)CC1` yielded an RP-LC retention time of 693 s.
With `CCC(C(=O)N1CCC(c2cc3n(n2)CCCNC3=O)CC1)c1ccccc1` (stereo not given) the RP-LC retention time was 694 s.
`O=C(CSc1ccc(N2CCN(c3ccc(F)cc3)CC2)nn1)NCC1CCCO1` (stereo not given) showed an RP-LC retention time of 689 s.
`CC1Oc2ccc(-c3csc(NC(=O)c4ccc(F)cc4)n3)cc2NC1=O` (stereo not given) gave an RP-LC retention time of 879 s.
In the case of `CC(C)CC(=O)NCCc1csc(-c2ccc(Cl)cc2)n1`, the RP-LC retention time was 881 s.
`Cc1cc(C(=O)N2C[C@@H](C)[C@H](c3nc(-c4ccncc4)no3)C2)n[nH]1` showed an RP-LC retention time of 619 s.
`CCCn1cc(CCNC(=O)c2ccccc2C)c2cccnc21` gave an RP-LC retention time of 748 s.
Work on `CCCc1ccc(S(=O)(=O)N2CCc3c(c(-c4nnc(-c5ccccc5)o4)nn3C)C2)cc1` yielded an RP-LC retention time of 1090 s.
`CCOC(=O)c1cccc(NC2=NS(=O)(=O)c3ccccc32)c1` gave an RP-LC retention time of 839 s.
Work on `COc1ncc(C(=O)Nc2ccc(F)cc2C)c(C)n1` yielded an RP-LC retention time of 638 s.
`Cc1ccc(-c2cnc(N3CCCC(C(=O)NCc4ccc5c(c4)OCO5)C3)nc2)cc1` (stereo not given) gave an RP-LC retention time of 1060 s.
`CCSc1nnc(NC(=O)CSc2nncn2C)s1` gave an RP-LC retention time of 606 s.
In the case of `CN1CCN(C(=O)C(=O)Nc2c3c(nn2-c2ccc(Cl)cc2)CSC3)CC1`, the RP-LC retention time was 634 s.
In the case of `Cc1cc(C)n(C(CC(=O)O)C(=O)O)n1` (stereo not given), the RP-LC retention time was 525 s.
Work on `O=C(NCCCn1cccn1)C1CN(S(=O)(=O)c2ccccc2)CC12CCCCC2` (stereo not given) yielded an RP-LC retention time of 819 s.
`O=C(NC1CCCC1)c1ccc(Cn2nc(N3CCN(c4ccc(F)cc4)CC3)ccc2=O)o1` showed an RP-LC retention time of 853 s.
`O=C(Nc1ccc(Cl)cc1)N1CCCC(c2nnc(Cc3ccc(F)cc3)o2)C1` (stereo not given) gave an RP-LC retention time of 877 s.
`CCC(C)NC(=O)Cn1nc2c3cc(-c4ccc(Cl)cc4)nn3ccn2c1=O` (stereo not given) gave an RP-LC retention time of 868 s.
`CCn1nc(C)c(-c2cc(C(=O)NCC3Cn4cccc4C(=O)N3C)no2)c1C` (stereo not given) showed an RP-LC retention time of 679 s.
For `COc1ccc(Cl)cc1NC(=O)Cn1nc(N2CCCC2)c2ccccc2c1=O`, the RP-LC retention time was 1090 s.
`COc1ccccc1C(=O)Nc1c(-c2ccccc2)nc2ccccn12` gave an RP-LC retention time of 597 s.
`O=C(CCCOc1ccc(Cl)cc1Cl)Nc1nc(-c2ccccc2)cs1` gave an RP-LC retention time of 1210 s.
`CCOc1ncccc1CNC(=O)CC1CCCC1` showed an RP-LC retention time of 812 s.
Compound `CCN(CC)CCNC(=O)CCc1c(-c2ccc(Cl)cc2)nc2ccccn12` has an RP-LC retention time of 558 s.
Work on `Cc1[nH]c(C(=O)N2CCC(CC(=O)NCCCN3CCN(c4ccc(F)cc4)CC3)CC2)c(C)c1C` yielded an RP-LC retention time of 675 s.
For `CC1(C)CC(O)CC(C)(C)N1[O-]`, the RP-LC retention time was 578 s.
With `CCn1ccc2sc(C)c(C(=O)NCc3ccccc3F)c2c1=O` the RP-LC retention time was 818 s.
With `COc1ccc(NC(=O)Cc2c(C)nn(-c3nc(C)cs3)c2C)cc1` the RP-LC retention time was 873 s.
With `CCc1cc(=O)n(CC(=O)Nc2ccc(Br)cc2)c(N2CCOCC2)n1` the RP-LC retention time was 829 s.
`CCS(=O)(=O)N1CCCc2cc(C(=O)NCc3ccco3)ccc21` showed an RP-LC retention time of 945 s.
`CC(C)N1C(=O)c2cccnc2Sc2cc(NC(=O)C3CCC3)ccc21` gave an RP-LC retention time of 798 s.
For `Cc1oc(-c2[nH]ncc2C(=O)N2CCCC2)cc1S(=O)(=O)NCCCOC(C)C`, the RP-LC retention time was 655 s.
With `O=C1NCCCn2cc(S(=O)(=O)NCc3cccc(C(F)(F)F)c3)cc21` the RP-LC retention time was 718 s.
For `CCn1nccc1C(=O)Nc1ccc2c(c1)OCO2`, the RP-LC retention time was 693 s.
`CCN1C(=O)S/C(=C\C(=O)O)C1=O` showed an RP-LC retention time of 638 s.
In the case of `COc1ccc(NC(=O)N2[C@H]3CC[C@@H]2c2cncnc2C3)c(C)c1`, the RP-LC retention time was 634 s.
In the case of `Cc1ccc(C(=O)NCc2nc(-c3ccc4c(c3)nnn4C)no2)cc1`, the RP-LC retention time was 731 s.
With `CC1(C(=O)NCc2ccccc2)CCCN(C(=O)NCc2ccc(F)cc2)C1` (stereo not given) the RP-LC retention time was 831 s.
`CCc1ccc(-c2cc3c(=O)n(CC(=O)NCC4CCCN4CC)nc(C)n3n2)cc1` (stereo not given) showed an RP-LC retention time of 713 s.
In the case of `CCc1cccc(NS(=O)(=O)c2cc3n(c2)CCN(C(C)C)C3=O)c1`, the RP-LC retention time was 816 s.
Compound `O=C(NCc1cccc(C(F)(F)F)c1)C1CCN(c2ccc(SCc3ccccc3)nn2)CC1` has an RP-LC retention time of 871 s.
Compound `COc1cccc(CNC(=O)C2(C)CCCN(C(=O)Nc3ccccc3Cl)C2)c1` (stereo not given) has an RP-LC retention time of 919 s.
Compound `COc1ccc(S(=O)(=O)CCc2nc(-c3cccc(-c4ccnn4C)c3)no2)cc1` has an RP-LC retention time of 866 s.
For `Cn1cnc2c(C(=O)Nc3ccc(Cl)cc3)nn(-c3ccccc3)c2c1=O`, the RP-LC retention time was 954 s.
For `CNC(=O)c1cn(-c2ccc(S(=O)(=O)N3CCCC3)cn2)cn1`, the RP-LC retention time was 622 s.
